Test results taken from patent publication EP0974351A2, “Medicament for preventing and treating gastrointestinal damage” (JOUVEINAL, priority 1998, dated 2000).
“And” between values parts separate entries of the source, which are not always exact repeats. Equal values may be shown once.

Tests used:
[1] = test system: Colonic Threshold in Normal Rats; assay: Colonic distension pain threshold in normal rats; assay type: in vivo, Male Sprague-Dawley rats; conditions: rat, in vivo
Method: (§1) Male Sprague-Dawley rats weighing 340 to 400 g were used in the study. The animals were housed three per cage in a regulated environment (20 ± 1°C, 50 ± 5% humidity, with light 8:00 AM to 8:00 PM). Under anethesia (ketamine 80 mg/kg i.p.; acepromazin 12 mg/kg i.p.), TNBS (50 mg/kg), or saline (1.5 mL/kg) was injected into the proximal colon (1 cm from the cecum). After the surgery, animals were individually housed in the regulated environment.
(§2) A balloon catheter (5-6 cm length) was inserted through the anus into the colon and kept in position (tip of balloon 5 cm from the anus) by taping the catheter to the base of the tail. The balloon was progressively inflated by step of 5 mm Hg, from 0 to 75 mm Hg, each step of inflation lasting 30 seconds. Each cycle of colonic distension was controlled by a standard barostat. The threshold corresponds to the pressure which produced the first abdominal contraction, at which time the cycle of distension was discontinued. To determine the colonic threshold, four cycles of distension were performed on the same animal.
In a first series of experiments, a group of eight rats treated with saline were subjected to a colonic distension session.
(§3) All test compounds were dissolved in saline except TNBS. TNBS was dissolved in EtOH 30% (w/v). Subcutaneous injection of vehicle was given in a volume of […].
(§4) Statistical significance between each group was determined using a one-way ANOVA followed by Student's unpaired t-test. Differences were considered statistically significant at p <0.05.

[2] = test system: TNBS-Induced Chronic Colonic Allodynia; assay: TNBS-induced chronic colonic allodynia in rats (colonic distension threshold); assay type: in vivo, Male Sprague-Dawley rats; conditions: rat, in vivo
Method: GABA analogs were evaluated in rats suffering from chronic visceral allodynia induced by trinitrobenzene sulfonic acid (TNBS).
In humans, digestive disorders are often associated with visceral pain. In these pathologies, the visceral pain threshold is decreased, indicating a visceral hypersensitivity. Consequently, the following study was designed to evaluate the effect of injection of TNBS into the colon on visceral pain threshold in an experimental model of colonic distension.
as §1, §2
In a second series, a group of eight rats treated with TNBS were subjected to a colonic distension session.
In a third series, a group of eight rats treated with TNBS received a subcutaneous (sc) injection of gabapentin or CI-1008 30 minutes prior to initiation of the colonic distension cycle.
as §3, §4
Pain threshold (pressure of distension inducing the first abdominal contraction) after distal colonic distension was determined at Day 7 in two groups of awake rats: control animals and TNBS-treated animals. […] Inflammatory parameters (colon weight, area of hyperemia and necrosis and colonic myeloperoxidase content) were measured in the proximal colon at Day 7 after TNBS treatment.
Gabapentin (100, 300, and 500 mg/kg sc) and CI-1008 (30, 60, 100, and 200 mg/kg sc) were administered 30 minutes before colonic distension and measurement of the inflammatory parameters.

CN1CC[C@]23c4c5ccc(O)c4O[C@H]2[C@@H](O)C=C[C@H]3[C@H]1C5 [Morphine]
colonic pain threshold in normal conditions (control animals), in words [1]: significantly increased
Colonic Threshold [2]: 34.22 mm Hg and 46.09 mm Hg and 64.84 mm Hg
TNBS-induced decrease in pain threshold after colonic distension (in words) [2]: completely suppressed
